We go through 21 compounds from PubChem BioAssay AID330 (DTP/NCI, 2004).

The structures appear in SMILES notation. Several values for one entry are separate records, joined by “and”; a condition that tells them apart may be missing. Equal entries are not always repeated. Inconclusive results and toxic doses are left out.

For this assay, the system named is P388 leukemia ip, CD2F1 mice, survival T/C. The experiment in a line: NCI In Vivo Anticancer Drug Screen. Data for tumor model P388 Leukemia (intraperitoneal) in CD2F1 (CDF1) mice. The settings on record: endpoint: median survival time, higher = longer survival. The gist of the method: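 Mice carrying the transplanted tumor received test compound or vehicle. Survival was recorded in each group, and the value is the treated-group measurement divided by that of the vehicle-treated control group.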

Where [1] appears, read: dose: 50.0 mg/kg/injection, schedule: Q01DX009 (ip), vehicle: Klucel (hydroxypropylcellulose) (HPC).
Setting [2] is: dose: 100.0 mg/kg/injection, schedule: Q01DX009 (ip), vehicle: Klucel (hydroxypropylcellulose) (HPC).
Setting [3] is: dose: 50.0 mg/kg/injection, schedule: Q01DX005 (ip), vehicle: Klucel (hydroxypropylcellulose) (HPC).
[4] abbreviates: dose: 100.0 mg/kg/injection, schedule: Q01DX005 (ip), vehicle: Klucel (hydroxypropylcellulose) (HPC).
The mark [5] stands for this setting: dose: 200.0 mg/kg/injection, schedule: Q01DX005 (ip), vehicle: Klucel (hydroxypropylcellulose) (HPC).
Where [6] appears, read: dose: 60.0 mg/kg/injection, schedule: Q01DX005 (ip), vehicle: saline with Tween-80.
Where [7] appears, read: dose: 120.0 mg/kg/injection, schedule: Q01DX005 (ip), vehicle: saline with Tween-80.
The mark [8] stands for this setting: dose: 240.0 mg/kg/injection, schedule: Q01DX005 (ip), vehicle: saline with Tween-80.
[9] abbreviates: dose: 60.0 mg/kg/injection, schedule: Q01DX005 (ip), vehicle: saline.
[10] abbreviates: dose: 120.0 mg/kg/injection, schedule: Q01DX005 (ip), vehicle: saline.

As for `O=C1c2ccccc2CCCC12OC2c1ccccn1` (stereo not given), the T/C was 98 % of control (dose: 25.0 mg/kg/injection, schedule: Q01DX009 (ip), vehicle: Klucel (hydroxypropylcellulose) (HPC)); 106 % of control under setting [1]; 98 % of control under setting [2].
For the compound `C=C(C)c1nc(N)nc(-c2ccc([N+](=O)[O-])cc2)n1`, the T/C was 88 % of control (dose: 100.0 mg/kg/injection, schedule: Q04DX002 (ip), vehicle: Klucel (hydroxypropylcellulose) (HPC)); 88 % of control (dose: 200.0 mg/kg/injection, schedule: Q04DX002 (ip), vehicle: Klucel (hydroxypropylcellulose) (HPC)); 88 % of control (dose: 400.0 mg/kg/injection, schedule: Q04DX002 (ip), vehicle: Klucel (hydroxypropylcellulose) (HPC)).
Consider `Nc1ccn(C2OC(C(OC3OC(CO)C(O)C(N)C3O)C(O)C(O)C(O)C(O)CO)C(N)C(O)C2O)c(=O)n1` (stereo not given), for which the T/C runs as follows: (dose: 0.1 mg/kg/injection, schedule: Q01DX005 (ip), vehicle: saline) 100 % of control; (dose: 0.2 mg/kg/injection, schedule: Q01DX005 (ip), vehicle: saline) 102 % of control; (dose: 0.4 mg/kg/injection, schedule: Q01DX005 (ip), vehicle: saline) 107 % of control; (dose: 0.8 mg/kg/injection, schedule: Q01DX005 (ip), vehicle: saline) 102 % of control.
As to `NCCSSc1ccccc1C(=O)O`, the T/C under setting [3] is 102 % of control, the T/C under setting [4] was 105 % of control and the T/C under setting [5] was 112 % of control.
In the case of `OC(c1cc(-c2ccc(C(F)(F)F)cc2)nc(C(F)(F)F)c1)C1CCCCN1` (stereo not given), the T/C was 101 % of control (dose: 6.25 mg/kg/injection, schedule: Q01DX009 (ip), vehicle: saline); 95 % of control (dose: 12.5 mg/kg/injection, schedule: Q01DX009 (ip), vehicle: saline with Tween-80); 103 % of control (dose: 12.5 mg/kg/injection, schedule: Q01DX009 (ip), vehicle: saline); 100 % of control (dose: 25.0 mg/kg/injection, schedule: Q01DX009 (ip), vehicle: saline with Tween-80); 107 % of control (dose: 25.0 mg/kg/injection, schedule: Q01DX009 (ip), vehicle: saline).
Take `CCOCCOCCOC(C)Oc1cccc(C(=O)OCC)c1` (stereo not given): the T/C is 92 % of control under setting [6], 100 % of control under setting [7] and 92 % of control under setting [8].
As for `C/C=N/NCCC#N`, the T/C is, setting by setting: (dose: 6.25 mg/kg/injection, schedule: Q01DX005 (ip), vehicle: saline) 100 % of control; (dose: 12.5 mg/kg/injection, schedule: Q01DX005 (ip), vehicle: saline) 100 % of control; (dose: 25.0 mg/kg/injection, schedule: Q01DX005 (ip), vehicle: saline) 90 % of control.
For `CC1=CCCC(C)(C)C1/C=C(/C#N)C(=O)N=C(N)N` (stereo not given), the T/C runs as follows: (dose: 50.0 mg/kg/injection, schedule: Q01DX009 (ip), vehicle: saline) 99 % of control; (dose: 100.0 mg/kg/injection, schedule: Q01DX009 (ip), vehicle: saline) 97 % of control; (dose: 200.0 mg/kg/injection, schedule: Q01DX009 (ip), vehicle: saline) 99 % of control.
Turning to `Cc1cc(N=Cc2ccc(C=Nc3ccc(Br)c(C)c3)cc2)ccc1Br`, the T/C is 101 % of control under setting [1]; 93 % of control under setting [2]; 92 % of control (dose: 200.0 mg/kg/injection, schedule: Q01DX009 (ip), vehicle: Klucel (hydroxypropylcellulose) (HPC)).
Consider `COc1ccc2c(NCCCCNc3c4ccccc4nc4cc(OC)ccc34)c3ccccc3nc2c1`, for which the T/C (dose: 0.62 mg/kg/injection, schedule: Q01DX009 (ip), vehicle: other) was 101 % of control; the T/C (dose: 1.25 mg/kg/injection, schedule: Q01DX009 (ip), vehicle: other) was 102 % of control; the T/C (dose: 2.5 mg/kg/injection, schedule: Q01DX009 (ip), vehicle: other) was 108 % of control; the T/C (dose: 5.0 mg/kg/injection, schedule: Q01DX009 (ip), vehicle: other) is 101 % of control; the T/C (dose: 10.0 mg/kg/injection, schedule: Q01DX009 (ip), vehicle: other) was 107 % of control; the T/C (dose: 20.0 mg/kg/injection, schedule: Q01DX009 (ip), vehicle: other) is 110 % of control.
As for `CSc1cc(C)c(O)c(C)c1`, the T/C runs as follows: (dose: 100.0 mg/kg/injection, schedule: Q04DX003 (ip), vehicle: other) 109 % of control; (dose: 200.0 mg/kg/injection, schedule: Q04DX003 (ip), vehicle: other) 100 % of control; (dose: 400.0 mg/kg/injection, schedule: Q04DX003 (ip), vehicle: other) 100 % of control.
Take `O=C1C=C(SCCCC(=O)N2CCOCC2)C(=O)c2ccccc21`: the T/C runs as follows: (dose: 6.25 mg/kg/injection, schedule: Q04DX003 (ip), vehicle: Klucel (hydroxypropylcellulose) (HPC)) 107 % of control; (dose: 12.5 mg/kg/injection, schedule: Q04DX003 (ip), vehicle: Klucel (hydroxypropylcellulose) (HPC)) 104 % of control.
In the case of `COc1cc2c(c(OC)c1OC)-c1ccc(OC)c(=O)cc1[C@@H](N(C)C(=O)C(F)(F)F)CC2`, the T/C (dose: 1.25 mg/kg/injection, schedule: Q01DX009 (ip), vehicle: Klucel (hydroxypropylcellulose) (HPC)) was 154 % of control and 163 % of control.
For the compound `O=c1c2sc3ccccc3c2ncn1/N=C/c1cccc([N+](=O)[O-])c1`, the T/C reads like this: under setting [3], 99 % of control; under setting [4], 92 % of control; under setting [5], 91 % of control.
`O=P(OCCCl)(OCCCl)C(Nc1cccc2ccccc12)c1ccc(N(CCCl)CCCl)cc1` (stereo not given): the T/C reads like this: under setting [6], 98 % of control; under setting [7], 95 % of control; under setting [8], 99 % of control.
For `COc1ccc(C2OC3=C(Nc4ccc([N+](=O)[O-])cc4N3)C2=O)cc1OC` (stereo not given), the T/C was 89 % of control (dose: 60.0 mg/kg/injection, schedule: Q01DX005 (ip), vehicle: Klucel (hydroxypropylcellulose) (HPC)); 93 % of control (dose: 120.0 mg/kg/injection, schedule: Q01DX005 (ip), vehicle: Klucel (hydroxypropylcellulose) (HPC)); 89 % of control (dose: 240.0 mg/kg/injection, schedule: Q01DX005 (ip), vehicle: Klucel (hydroxypropylcellulose) (HPC)).
`CCCCN(CCCC)CC(O)c1ccc(Br)c2ccccc12` (stereo not given): the T/C was 105 % of control (dose: 50.0 mg/kg/injection, schedule: Q01DX005 (ip), vehicle: saline with Tween-80); 102 % of control (dose: 100.0 mg/kg/injection, schedule: Q01DX005 (ip), vehicle: saline with Tween-80); 104 % of control (dose: 200.0 mg/kg/injection, schedule: Q01DX005 (ip), vehicle: saline with Tween-80).
`CCOC(=O)c1ccc(N/N=C\C(C)=N/NC(=S)NC)cc1`: the T/C reads like this: (dose: 100.0 mg/kg/injection, schedule: Q01DX001 (ip), vehicle: saline) 108 % of control; (dose: 200.0 mg/kg/injection, schedule: Q01DX001 (ip), vehicle: saline) 108 % of control; (dose: 400.0 mg/kg/injection, schedule: Q01DX001 (ip), vehicle: saline) 100 % of control.
Take `OC1CN(Cc2ccccc2)C[C@@H]1O` (stereo not given in full): the T/C under setting [9] is 100 % of control and the T/C under setting [10] was 96 % of control.
As for `CN(C)c1ncnc2c1cnn2C`, the T/C by setting is: (dose: 50.0 mg/kg/injection, schedule: Q01DX009 (ip), vehicle: saline with Tween-80) 109 % of control; (dose: 50.0 mg/kg/injection, schedule: Q04DX003 (ip), vehicle: saline sonified) 100 % of control; (dose: 100.0 mg/kg/injection, schedule: Q04DX003 (ip), vehicle: saline sonified) 100 % of control; (dose: 200.0 mg/kg/injection, schedule: Q04DX003 (ip), vehicle: saline sonified) 109 % of control.
For the compound `N=c1ccccn1CCO`, the T/C under setting [9] is 94 % of control and the T/C under setting [10] is 99 % of control.
